pEC50: −log10 of the molar value.
System: HCV 1b_Huh-Luc/Neo-ET cell line persistently expressing a bicistronic genotype 1b replicon in Huh 7 cells
Assay: HCV replicon assay, luciferase enzyme activity readout
Format: cell-based
Conditions: Hepatitis C virus, 72 h incubation, average EC50 range, read-out: Inhibition of HCV genotype 1b
Method: Biological activity of the compounds of the invention was determined using an HCV replicon assay. The HCV 1b_Huh-Luc/Neo-ET cell line persistently expressing a bicistronic genotype 1b replicon in Huh 7 cells was obtained from ReBLikon GMBH. This cell line was used to test compound inhibition using luciferase enzyme activity readout as a measurement of compound inhibition of replicon levels.
On Day 1 (the day after plating cells), each compound is added in triplicate to the cells. Plates are incubated for 72 h prior to determining luciferase levels. Enzyme activity was measured using a Bright-Glo Kit (cat. number E2620) manufactured by Promega Corporation. The following equation was used to generate a percent control value for each compound. % Control=(Compound Luciferase Level/Control Luciferase Level)*100
The EC50 value was determined using GraphPad Prism and the following equation: Y=Bottom asymptote+(Top asymptote−Bottom asymptote)/(1+10^((Log EC50−X)*HillSlope))
EC50 values of compounds are determined several times in the replicon assay to generate average EC50 values. […]

Structure (SMILES) | pEC50
COC(=O)N[C@H](C(=O)N[C@@H](C)c1ncc(-c2ccc3c(c2)Oc2ccc(-c4cnc([C@H](C)NC(=O)[C@@H](NC(=O)OC)C(C)C)[nH]4)cc2O3)[nH]1)C(C)C [Compound 39] | > 9.00
COC(=O)N[C@H](C(=O)N1CCC[C@H]1c1ncc(-c2ccc3oc4cc(-c5cnc([C@@H]6CCCN6C(=O)[C@@H](NC(=O)OC)C6CCOCC6)[nH]5)c(F)cc4c(=O)c3c2)[nH]1)C1CCOCC1 [Compound 23] | > 9.00
COC(=O)N[C@H](C(=O)N1CCC[C@H]1c1ncc(-c2ccc3c(=O)c4cc(-c5cnc([C@@H]6CCCN6C(=O)[C@H](NC(=O)OC)c6ccccc6)[nH]5)ccc4oc3c2)[nH]1)C(C)C [Compound 15] | > 9.00
C#CC[C@H](NC(=O)OC)C(=O)N1CCC[C@H]1c1ncc(-c2ccc3c(c2)Oc2ccc(-c4cnc([C@@H]5CCCN5C(=O)[C@H](CC#C)NC(=O)OC)[nH]4)cc2O3)[nH]1 [Compound 56] | > 9.00
COC(=O)N[C@@H](C(=O)N1CCOC[C@H]1c1ncc(-c2ccc3c(c2)Oc2ccc(-c4cnc([C@@H]5COCCN5C(=O)[C@H](NC(=O)OC)c5ccccc5)[nH]4)cc2O3)[nH]1)c1ccccc1 [Compound 65] | > 9.00
COC(=O)N[C@H](C(=O)N1CCC[C@H]1c1ncc(-c2cc3oc4ccc(-c5cnc([C@@H]6CCCN6C(=O)[C@@H](NC(=O)OC)C6CCOCC6)[nH]5)cc4c(=O)c3cc2F)[nH]1)C(C)C [Compound 28] | > 9.00
COC(=O)N[C@H](C(=O)N1CCC[C@H]1c1ncc(-c2ccc3c(=O)c4cc(-c5cnc([C@@H]6CCCN6C(=O)[C@@H](NC(=O)OC)C(C)C)[nH]5)ccc4oc3c2)[nH]1)C(C)C [Compound 8] | > 9.00
COC(=O)N[C@H](C(=O)N1CCOC[C@H]1c1ncc(-c2ccc3c(c2)Oc2ccc(-c4cnc([C@@H]5COCCN5C(=O)[C@@H](NC(=O)OC)C(C)C)[nH]4)cc2O3)[nH]1)C(C)C [Compound 64] | > 9.00
CC[C@H](C)[C@H](NC(=O)OC)C(=O)N1CCC[C@H]1c1ncc(-c2ccc3c(c2)Cc2cc(Cl)c(-c4cnc([C@@H]5CCCN5C(=O)[C@@H](NC(=O)OC)[C@@H](C)CC)[nH]4)cc2O3)[nH]1 [Compound 63] | > 9.00
COC(=O)N[C@H](C(=O)N1CCC[C@H]1c1ncc(-c2ccc3c(c2)Oc2ccc(-c4cnc([C@@H]5CCCN5C(=O)[C@@H](NC(=O)OC)C(C)C)[nH]4)cc2C3(C)C)[nH]1)C(C)C [Compound 10] | > 9.00
[2H]C([2H])([2H])C([2H])(C([2H])([2H])[2H])[C@]([2H])(NC(=O)OC)C(=O)N1CCC[C@H]1c1ncc(-c2ccc3c(c2)Oc2ccc(-c4cnc([C@@H]5CCCN5C(=O)[C@@]([2H])(NC(=O)OC)C([2H])(C([2H])([2H])[2H])C([2H])([2H])[2H])[nH]4)cc2O3)[nH]1 [Compound 57] | > 9.00
COC(=O)N[C@H](C(=O)N1CCC[C@H]1c1ncc(-c2ccc3c(c2)Cc2cc(-c4cnc([C@@H]5CCCN5C(=O)[C@@H](NC(=O)OC)C(C)C)[nH]4)ccc2O3)[nH]1)C(C)C [Compound 4] | 6.00 to 8.00
COC(=O)N[C@H](C(=O)N1CCC[C@H]1c1ncc(-c2ccc3c(c2)Cc2ccc(-c4cnc([C@@H]5CCCN5C(=O)[C@@H](NC(=O)OC)[C@@H](C)OC)[nH]4)cc2O3)[nH]1)[C@@H](C)OC [Compound 30] | > 9.00
CC[C@H](C)[C@H](NC(=O)OC)C(=O)N1CCC[C@H]1c1ncc(-c2ccc3c(c2)Oc2ccc(-c4cnc([C@@H]5CCCN5C(=O)[C@@H](NC(=O)OC)[C@@H](C)CC)[nH]4)cc2O3)[nH]1 [Compound 46] | > 9.00
COC(=O)N[C@@H](C(=O)N1CSC[C@H]1c1ncc(-c2ccc3c(c2)Oc2ccc(-c4cnc([C@@H]5CSCN5C(=O)[C@H](NC(=O)OC)c5ccccc5)[nH]4)cc2O3)[nH]1)c1ccccc1 [Compound 37] | > 9.00
COC(=O)N[C@H](C(=O)N1CCC[C@H]1c1ncc(-c2ccc3nc4cc(-c5cnc([C@@H]6CCCN6C(=O)[C@@H](NC(=O)OC)C(C)C)[nH]5)ccc4nc3c2)[nH]1)C(C)C [Compound 1] | > 9.00

From patent publication US9150554B2, “Fused ring inhibitors of hepatitis C” (Presidio Pharmaceuticals, Inc., priority 2009, dated 2015)
